Consider 18 compounds from ChEMBL document CHEMBL5500337, “Synthesis and anti-liver fibrosis activity of imidazole and thiazole compounds containing amino acids” (Eur J Med Chem, 2024).

Data set [1] has as its target Mitogen-activated protein kinase 14 (Homo sapiens, UniProt Q16539). Briefly: Inhibition of human recombinant p38alpha expressed in Escherichia coli incubated for 60 mins in presence of ATP by microplate scintillation counter.
Data set [2] relates to LX-2. Briefly: Cytotoxicity against human LX-2 cells assessed as reduction in cell viability upto 100 uM incubated for 24 hrs by MTT assay. In kind it is toxicity, cell-based. The settings on record: lx-2, 24 h. (Tetrazolium dyes change colour on reduction, which living cells bring about.)
For data set [3], the system named is LX-2. Description: Anti-fibrotic activity in human LX-2 cells assessed as reduction in alpha-SMA protein expression at 20 uM preincubated with compound for 1 hrs followed by TGFbeta addition and measured after 24 hrs by Western blot analysis. The class given is functional, cell-based. The note with it: time 25.0 hrs.
The subject of data set [4] is LX-2. Description: Anti-fibrotic activity in human LX-2 cells assessed as reduction in collagen I protein expression at 20 uM preincubated with compound for 1 hrs followed by TGFbeta addition and measured after 24 hrs by Western blot analysis. In kind it is functional, cell-based. The settings on record: time 25.0 hrs. In general terms: A western blot detects proteins with antibodies after separation by electrophoresis.

For data set [5], the system named is LX-2. Description: Anti-fibrotic activity in human LX-2 cells assessed as inhibition of alpha-SMA mRNA expression at 5 uM preincubated with compound for 1 hrs followed by TGFbeta addition and measured after 24 hrs by RT-PCR analysis. The class given is functional, cell-based. The settings on record: time 25.0 hrs.
The test system of data set [6] is LX-2. Description: Anti-fibrotic activity in human LX-2 cells assessed as reduction in alpha-SMA protein expression at 5 uM preincubated with compound for 1 hrs followed by TGFbeta addition and measured after 24 hrs by Western blot analysis. In kind it is functional, cell-based. The note with it: time 25.0 hrs.
Data set [7] relates to LX-2. Description: Cytotoxicity against human LX-2 cells assessed as reduction in cell viability at 100 uM incubated for 24 hrs by MTT assay. In kind it is toxicity, cell-based. The settings on record: lx-2, 24 h.
Data set [8] deals with LX-2. Briefly: Cytotoxicity against human LX-2 cells assessed as reduction in cell viability at 6.25 uM incubated for 24 hrs by MTT assay. The class given is toxicity, cell-based. The settings on record: lx-2, 24 h.
In data set [9] the test system is LX-2. Briefly: Cytotoxicity against human LX-2 cells assessed as reduction in cell viability upto 50 uM incubated for 24 hrs by MTT assay. The class given is toxicity, cell-based. The note with it: lx-2, 24 h.
The subject of data set [10] is LX-2. Briefly: Anti-fibrotic activity in human LX-2 cells assessed as inhibition of alpha-SMA expression preincubated with compound for 1 hrs followed by TGFbeta addition and measured after 24 hrs by DAPI staining based confocal laser scanning microscopic analysis. The class given is functional, cell-based. The settings on record: dose 5-20 µM, time 25.0 hrs.
A short description of data set [11]: AUC (0 to t) in male Sprague-Dawley rat at 4 mg/kg, iv measured after 8 hrs by UPLC-MS/MS analysis. The class given is ADME, organism-based. The note with it: in vivo.
Data set [12] in a line: AUC (0 to infinity) in male Sprague-Dawley rat at 4 mg/kg, iv measured after 8 hrs by UPLC-MS/MS analysis. In kind it is ADME, organism-based. The note with it: in vivo.
Data set [13] is described as follows: MRT (0 to t) in male Sprague-Dawley rat at 4 mg/kg, iv measured after 8 hrs by UPLC-MS/MS analysis. In kind it is ADME, organism-based. The note with it: in vivo.
Data set [14] can be described thus: Half-life in male Sprague-Dawley rat at 4 mg/kg, iv measured after 8 hrs by UPLC-MS/MS analysis. The class given is ADME, organism-based. The note with it: in vivo.
The nature of data set [15]: Tmax in male Sprague-Dawley rat at 4 mg/kg, iv measured after 8 hrs by UPLC-MS/MS analysis. In kind it is ADME, organism-based. The note with it: in vivo.
Data set [16] in a line: Cmax in male Sprague-Dawley rat at 4 mg/kg, iv measured after 8 hrs by UPLC-MS/MS analysis. The note with it: in vivo. In kind it is ADME, organism-based.
A short description of data set [17]: Clearance in male Sprague-Dawley rat at 4 mg/kg, iv measured after 8 hrs by UPLC-MS/MS analysis. In kind it is ADME, organism-based. The note with it: in vivo.
The nature of data set [18]: Oral bioavailability in male Sprague-Dawley rat at 15 mg/kg measured after 8 hrs by UPLC-MS/MS analysis. The class given is ADME, organism-based. The note with it: in vivo.
The nature of data set [19]: AUC (0 to t) in male Sprague-Dawley rat at 15 mg/kg, po measured after 8 hrs by UPLC-MS/MS analysis. In kind it is ADME, organism-based. The note with it: in vivo.
Data set [20] can be described thus: AUC (0 to infinity) in male Sprague-Dawley rat at 15 mg/kg, po measured after 8 hrs by UPLC-MS/MS analysis. The settings on record: in vivo. In kind it is ADME, organism-based.
A short description of data set [21]: MRT (0 to t) in male Sprague-Dawley rat at 15 mg/kg, po measured after 8 hrs by UPLC-MS/MS analysis. The class given is ADME, organism-based. The note with it: in vivo.
A short description of data set [22]: Half-life in male Sprague-Dawley rat at 15 mg/kg, po measured after 8 hrs by UPLC-MS/MS analysis. The class given is ADME, organism-based. The settings on record: in vivo.
The nature of data set [23]: Tmax in male Sprague-Dawley rat at 15 mg/kg, po measured after 8 hrs by UPLC-MS/MS analysis. The class given is ADME, organism-based. The note with it: in vivo.
Data set [24] is described as follows: Cmax in male Sprague-Dawley rat at 15 mg/kg, po measured after 8 hrs by UPLC-MS/MS analysis. In kind it is ADME, organism-based. The settings on record: in vivo.
A short description of data set [25]: Clearance in male Sprague-Dawley rat at 15 mg/kg, po measured after 8 hrs by UPLC-MS/MS analysis. In kind it is ADME, organism-based. The note with it: in vivo.

Calls of active or inactive are those of the source. The rule behind the calls is not given here. Where only a bound is given, the exact number is not on record here.

Chain of Mitogen-activated protein kinase 14 (Q16539 whole entry): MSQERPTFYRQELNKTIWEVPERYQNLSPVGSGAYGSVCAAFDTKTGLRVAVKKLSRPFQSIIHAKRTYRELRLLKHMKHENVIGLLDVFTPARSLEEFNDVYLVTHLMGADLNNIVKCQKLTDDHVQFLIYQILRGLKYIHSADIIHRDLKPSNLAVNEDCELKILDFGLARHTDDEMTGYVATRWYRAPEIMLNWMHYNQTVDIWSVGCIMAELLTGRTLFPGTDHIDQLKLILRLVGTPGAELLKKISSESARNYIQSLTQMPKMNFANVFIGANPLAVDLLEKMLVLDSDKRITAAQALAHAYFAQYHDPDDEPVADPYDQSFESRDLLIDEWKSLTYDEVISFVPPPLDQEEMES

On to `Cc1cccc(-c2nc(NC(=O)[C@@H](N)Cc3ccccc3)sc2-c2ccc3ncnn3c2)n1`, for which the IC50 in data set [1] was more than 3 µM.
As to `Cc1cccc(-c2nc(NC(=O)[C@@H](N)CC(C)C)sc2-c2ccc3ncnn3c2)n1`, the IC50 in data set [1] was more than 1 µM. The Activity entry in the data set with LX-2 [2] is given as “Non-Toxic”. For the same compound, the result in the data set with LX-2 [3], with LX-2 [4] and in the data set with LX-2 [5] was Active.
For `Cc1cccc(-c2nc(NC(=O)[C@@H]3CCCCN3)sc2-c2ccc3ncnn3c2)n1`, the IC50 in data set [1] was more than 3 µM.
On the same count and under the same terms, next, `Cc1cccc(-c2nc(NC(=O)[C@H]3CCCCN3)sc2-c2ccc3ncnn3c2)n1`: more than 3 µM.
On to `Cc1cccc(-c2nn3c(c2-c2ccnc4ccc(C(N)=O)cc24)CCC3)n1`, for which the result in the data set with LX-2 [6] was Active.
Regarding `Cc1cccc(-c2[nH]c(CNC(=S)[C@@H](N)Cc3ccccc3)nc2-c2ccc3ncnn3c2)n1`, in data set [1], the 50% inhibitory concentration (IC50) is more than 3 µM.
On the same count and under the same terms, in the case of `Cc1cccc(-c2nc(NC(=O)[C@H](C)N)sc2-c2ccc3ncnn3c2)n1` it was more than 1 µM.
Same read-out and setting: in the case of `Cc1cccc(-c2nc(NC(=S)[C@@H](N)CC(C)C)sc2-c2ccc3ncnn3c2)n1` it was more than 1 µM; in that of `Cc1cccc(-c2nc(NC(=O)[C@H](N)Cc3ccccc3)sc2-c2ccc3ncnn3c2)n1`, more than 3 µM.
On to `Cc1cccc(-c2nc(NC(=O)[C@H](N)CC(C)C)sc2-c2ccc3ncnn3c2)n1`, for which the IC50 in [1] is more than 3 µM. For the same compound, the values for the Activity entry in the data set on LX-2 [7] and in the data set on LX-2 [8] were “Toxic” and “Non-Toxic”, respectively. The outcome with LX-2 [3], in the data set with LX-2 [4] and in the data set on LX-2 [5] was Active.
Consider `Cc1cccc(-c2[nH]c(CNC(=O)[C@H](C)N)nc2-c2ccc3ncnn3c2)n1`, for which the IC50 in [1] was more than 3 µM.
With `Cc1cccc(-c2[nH]c(CNC(=O)[C@H](N)Cc3ccccc3)nc2-c2ccc3ncnn3c2)n1`, the Activity entry with LX-2 [9] was “Non-Toxic”; in the data set on LX-2 [10] it was “Dose-Dependent Effect”. The outcome in the data set on LX-2 [3], in the data set with LX-2 [4] and in the data set on LX-2 [5] was Active. Further, the AUC(0-t) at 8 h is 12500 ng·h/mL in [11] and 1220 ng·h/mL in data set [19]. In addition, the results for the AUC in data set [12] and in data set [20] were 12802 ng·h/mL and 2667 ng·h/mL, respectively. In addition, the figures for the MRT last at 8 h in data set [13] and in data set [21] were 1.01 h and 2.79 h, respectively. The half-life in data set [14] is 2.24 h; in data set [22], 9.14 h. Moreover, the values for the Tmax in [15] and in data set [23] were 0 h and 6.6 min, respectively. The Cmax in [16] was found to be 43100 ng/mL; in data set [24] it was 1390 ng/mL. The compound also gave a clearance in data set [17] of 5.23 mL/min/kg. The compound further had a F in data set [18] of 2.59%. In addition, the CL/F in data set [25] was 109 mL/min/kg.
As for `Cc1cccc(-c2[nH]c(CNC(=O)[C@H](N)CC(C)C)nc2-c2ccc3ncnn3c2)n1`, in data set [1], the 50% inhibitory concentration (IC50) was more than 3 µM.
As for `Cc1cccc(-c2nc(NC(=S)[C@H](N)CC(C)C)sc2-c2ccc3ncnn3c2)n1`, the concentration for half-maximal inhibition (IC50) in [1] is more than 1 µM.
Still for that read-out and setting: in the case of `Cc1cccc(-c2[nH]c(CNC(=O)[C@@H](N)CC(C)C)nc2-c2ccc3ncnn3c2)n1` it was more than 3 µM; in that of `Cc1cccc(-c2[nH]c(CNC(=O)[C@@H]3CCCCN3)nc2-c2ccc3ncnn3c2)n1`, more than 3 µM; in that of `Cc1cccc(-c2[nH]c(CNC(=S)[C@H](N)Cc3ccccc3)nc2-c2ccc3ncnn3c2)n1`, more than 1 µM.
The same measure, in the same setting: next, `Cc1cccc(-c2[nH]c(CNC(=O)[C@H]3CCCCN3)nc2-c2ccc3ncnn3c2)n1`: more than 1 µM.

One may read the IC50 as the point on the concentration scale where inhibition reaches its midpoint. By AUC(0-t) is commonly meant exposure summed from dosing to a finite time, without extrapolation to infinity. Higher therefore signals more exposure. Broadly, the AUC is the area under the concentration-time curve, a measure of exposure. By MRT last is commonly meant the average time that molecules of a dose stay in the body. In general, half-life refers to how long it takes for the measured level to halve. A lower half-life goes with rapid decline. The Tmax is the time at which the peak concentration occurs. Usually Cmax stands for the peak of the concentration-time curve. For orientation: clearance means the rate of elimination divided by the concentration. The CL/F is the apparent clearance, not corrected for the fraction that reaches the circulation.
